Test results published in ChEMBL document CHEMBL1144621, “Pharmacophore modeling and in silico screening for new KDR kinase inhibitors” (Bioorg Med Chem Lett, 2007).

Target: Vascular endothelial growth factor receptor 2 (Homo sapiens, UniProt P35968)
Sequence (P35968 whole entry): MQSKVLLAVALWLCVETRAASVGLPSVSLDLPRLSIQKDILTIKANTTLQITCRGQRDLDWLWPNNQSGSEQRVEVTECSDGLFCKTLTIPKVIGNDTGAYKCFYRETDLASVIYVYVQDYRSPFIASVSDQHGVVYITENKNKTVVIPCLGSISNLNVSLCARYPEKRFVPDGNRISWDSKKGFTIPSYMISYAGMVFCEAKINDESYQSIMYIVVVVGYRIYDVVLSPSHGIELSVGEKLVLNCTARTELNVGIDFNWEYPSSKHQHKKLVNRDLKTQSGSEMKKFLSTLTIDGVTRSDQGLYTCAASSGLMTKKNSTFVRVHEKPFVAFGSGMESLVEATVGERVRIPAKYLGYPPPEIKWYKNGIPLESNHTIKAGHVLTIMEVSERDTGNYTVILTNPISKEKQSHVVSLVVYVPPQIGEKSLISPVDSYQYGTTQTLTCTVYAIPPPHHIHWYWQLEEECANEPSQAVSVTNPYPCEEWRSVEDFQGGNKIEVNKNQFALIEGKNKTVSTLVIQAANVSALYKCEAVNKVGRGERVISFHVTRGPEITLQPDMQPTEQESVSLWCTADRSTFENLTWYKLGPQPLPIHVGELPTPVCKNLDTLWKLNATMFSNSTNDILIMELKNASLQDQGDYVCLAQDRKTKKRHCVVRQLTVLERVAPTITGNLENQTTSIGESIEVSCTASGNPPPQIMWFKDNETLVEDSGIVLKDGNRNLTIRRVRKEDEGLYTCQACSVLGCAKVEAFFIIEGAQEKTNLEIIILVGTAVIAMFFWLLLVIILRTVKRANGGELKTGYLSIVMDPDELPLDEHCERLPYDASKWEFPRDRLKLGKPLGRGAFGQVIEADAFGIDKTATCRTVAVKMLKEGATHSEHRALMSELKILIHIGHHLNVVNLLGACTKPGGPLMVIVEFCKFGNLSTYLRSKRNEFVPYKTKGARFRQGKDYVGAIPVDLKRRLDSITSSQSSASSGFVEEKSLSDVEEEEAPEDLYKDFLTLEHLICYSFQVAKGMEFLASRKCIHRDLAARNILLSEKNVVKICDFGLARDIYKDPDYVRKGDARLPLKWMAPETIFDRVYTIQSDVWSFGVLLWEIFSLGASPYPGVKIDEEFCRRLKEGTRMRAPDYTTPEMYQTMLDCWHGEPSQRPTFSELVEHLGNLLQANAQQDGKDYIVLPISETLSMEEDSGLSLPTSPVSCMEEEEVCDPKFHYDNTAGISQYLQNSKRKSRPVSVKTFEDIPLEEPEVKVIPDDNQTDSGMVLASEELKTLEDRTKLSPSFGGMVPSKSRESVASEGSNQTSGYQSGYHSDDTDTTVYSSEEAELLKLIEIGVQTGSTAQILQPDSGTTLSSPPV

IC50 [µM] | SMILES
15.4 | O=C1Nc2ccccc2/C1=C\c1sccc1Br
31 | Cc1cccc2c1/C(=C\c1ccc[nH]1)C(=O)N2
20 | Cn1cccc1/C=C1/C(=O)Nc2ccccc21
